Reference: patent publication US7229630B2, “Stabilized formulations of alpha adrenergic receptor antagonists and the uses thereof” (Novalar Pharmaceuticals, Inc., priority 2002, dated 2007)
Counter-ions that a name gives are not always drawn.

Experiments:
[1] = Effect of buffer anion on stability at 60° C. (HPLC); assay type: physicochemical
Method: (§1) The drug is monitored at a detection wavelength of 232 nm.
(§2) Tightly sealed glass vials containing the test solutions were placed in an oven at 40° C. or 60° C. All samples were stored in the dark. Aliquots were removed at designated time points for HPLC analysis and pH measurement. All samples were analyzed without dilution.
The test buffers included 50 mM sodium phosphate, 50 mM sodium acetate, 50 mM sodium lactate, 50 mM sodium citrate, and 50 mM sodium succinate buffers at pH 3.
The phosphate and acetate buffers were prepared as described above. The citrate buffer was prepared by adding 9.60 g of citric acid to water, adjusting the pH with 2 N NaOH to pH 3, and bringing the volume to 1 L in a volumetric flask. The lactate buffer was prepared by adding 2.25 g of lactic acid to water, adjusting the pH with 2 N NaOH to pH 3, and bringing the volume to 1 L in a volumetric flask. The succinate buffer was prepared by adding 2.95 g succinic acid to water, adjusting the pH with 2 N NaOH to pH 3, and bringing the volume to 1 L in a volumetric flask.
Measurements of sample pH were done after HPLC analysis.

[2] = Effect of buffer concentration on stability at 60° C. (HPLC, pH); assay type: physicochemical; settings: for pH: 60° C.
Method: as §1, §2
In conjunction with HPLC analysis, pH was measured. The measurement was performed using the same samples as used for the HPLC analysis. The pH meter was calibrated using pH 4.00 and 7.00 buffer standards prior to each measurement.
Samples were incubated at 60° C. with scheduled testing performed at day 0, 2, 7, and 14. The various buffer concentrations were prepared by diluting the 50 mM buffer with water and re-examining the pH value to determine if the pH 3.5 was constant. Measurements of pH were performed after HPLC analysis of the samples.

healthy adult volunteers = test: Reversal of soft-tissue anesthesia after inferior alveolar nerve block, proof-of-principle trial; assay type: in vivo, human; settings: 0.2 mg in 1.8 ml
Method: The objective of this proof-of-principle trial was to evaluate the feasibility of reversing soft-tissue anesthesia by pharmacologically blocking the effects of epinephrine. […] Subjects self-evaluated the return of normal sensation in their lip, chin, tongue, nose, and teeth by palpations at 5-minute intervals starting at 5 minutes before the study drug injection and continuing for approximately 4–5 hours. To avoid biased responding, subjects were told that they could not leave the clinic for 8 hours after the last injection. Responses for soft tissues were categorized as (1) numb (no feeling), (2) feeling of pins and needles, or (3) normal sensation. Responses for teeth were (1) numb (no feeling) or (2) normal sensation. Safety was evaluated through reports of adverse events, measurement of vital signs and two-lead electrocardiograms before, during, and after the injections of anesthetic and study drug, and through pain assessments using visual analog scales.

[3] = test system: healthy adult volunteer subjects; test: Dose range study of reversal of local anesthesia after mandibular nerve block; assay type: in vivo, human
Description: The objectives of this study were to evaluate the safety and efficacy of a range of doses of phentolamine in reversing local anesthesia after a mandibular nerve block. […] Subjects palpated their lower lip, chin, tongue, and teeth every five minutes for the next five hours after injections.

[4] = test system: healthy adult volunteer subjects; test: Dose range study of reversal of local anesthesia after maxillary infiltration; assay type: in vivo, human
Method: Four groups of eight healthy adult volunteer subjects were given an infiltration of the lateral incisor using one 1.8 ml cartridge of lidocaine 2% with epinephrine 1:100,000. […] Subjects palpated their upper lip, nose, and teeth every five minutes for the next five hours after injections.

[5] = 50 mM sodium Acetate pH 3.0, 60° C., Day 0
[6] = 50 mM sodium Acetate pH 3.0, 60° C., Day 2
[7] = 50 mM sodium Acetate pH 3.0, 60° C., Day 7
[8] = 50 mM sodium Acetate pH 3.0, 60° C., Day 14
[9] = 50 mM sodium Citrate pH 3.0, 60° C., Day 0
[10] = 50 mM sodium Citrate pH 3.0, 60° C., Day 2
[11] = 50 mM sodium Citrate pH 3.0, 60° C., Day 7
[12] = 50 mM sodium Citrate pH 3.0, 60° C., Day 14
[13] = 50 mM sodium Lactate pH 3.0, 60° C., Day 0
[14] = 50 mM sodium Lactate pH 3.0, 60° C., Day 2
[15] = 50 mM sodium Lactate pH 3.0, 60° C., Day 7
[16] = 50 mM sodium Lactate pH 3.0, 60° C., Day 14
[17] = 50 mM sodium Phosphate pH 3.0, 60° C., Day 0
[18] = 50 mM sodium Phosphate pH 3.0, 60° C., Day 2
[19] = 50 mM sodium Phosphate pH 3.0, 60° C., Day 7
[20] = 50 mM sodium Phosphate pH 3.0, 60° C., Day 14
[21] = 50 mM sodium Succinate pH 3.0, 60° C., Day 0
[22] = 50 mM sodium Succinate pH 3.0, 60° C., Day 2
[23] = 50 mM sodium Succinate pH 3.0, 60° C., Day 7
[24] = 50 mM sodium Succinate pH 3.0, 60° C., Day 14
[25] = 0 mM sodium acetate (un-buffered) pH 3.5, 60° C., Day 0
[26] = 0 mM sodium acetate (un-buffered) pH 3.5, 60° C., Day 2
[27] = 0 mM sodium acetate (un-buffered) pH 3.5, 60° C., Day 7
[28] = 0 mM sodium acetate (un-buffered) pH 3.5, 60° C., Day 14
[29] = 5 mM sodium acetate pH 3.5, 60° C., Day 0
[30] = 5 mM sodium acetate pH 3.5, 60° C., Day 2
[31] = 5 mM sodium acetate pH 3.5, 60° C., Day 7
[32] = 5 mM sodium acetate pH 3.5, 60° C., Day 14
[33] = 10 mM sodium acetate pH 3.5, 60° C., Day 0
[34] = 10 mM sodium acetate pH 3.5, 60° C., Day 2
[35] = 10 mM sodium acetate pH 3.5, 60° C., Day 7
[36] = 10 mM sodium acetate pH 3.5, 60° C., Day 14
[37] = 50 mM sodium acetate pH 3.5, 60° C., Day 7
[38] = 50 mM sodium acetate pH 3.5, 60° C., Day 14

Structure (SMILES): Cc1ccc(N(CC2=NCCN2)c2cccc(O)c2)cc1 [Phentolamine Mesylate, phentolamine mesylate]
- Phentolamine Concentration [1, 5]: 96 µg/mL
- Phentolamine Purity [1, 5]: 100 % peak area
- Phentolamine Concentration [1, 6]: 95 µg/mL
- Phentolamine Purity [1, 6]: 98 % peak area
- Phentolamine Concentration [1, 7]: 94 µg/mL
- Phentolamine Purity [1, 7]: 97 % peak area
- Phentolamine Concentration [1, 8]: 89 µg/mL
- Phentolamine Purity [1, 8]: 96 % peak area
- Phentolamine Concentration [1, 9]: 93 µg/mL
- Phentolamine Purity [1, 9]: 97 % peak area
- Phentolamine Concentration [1, 10]: 87 µg/mL
- Phentolamine Purity [1, 10]: 91 % peak area
- Phentolamine Concentration [1, 11]: 73 µg/mL
- Phentolamine Purity [1, 11]: 77 % peak area
- Phentolamine Concentration [1, 12]: 62 µg/mL
- Phentolamine Purity [1, 12]: 69 % peak area
- Phentolamine Concentration [1, 13]: 97 µg/mL
- Phentolamine Purity [1, 13]: 99 % peak area
- Phentolamine Concentration [1, 14]: 94 µg/mL
- Phentolamine Purity [1, 14]: 98 % peak area
- Phentolamine Concentration [1, 15]: 91 µg/mL
- Phentolamine Purity [1, 15]: 94 % peak area
- Phentolamine Concentration [1, 16]: 83 µg/mL
- Phentolamine Purity [1, 16]: 89 % peak area
- Phentolamine Concentration [1, 17]: 96 µg/mL
- Phentolamine Purity [1, 17]: 99 % peak area
- Phentolamine Concentration [1, 18]: 93 µg/mL
- Phentolamine Purity [1, 18]: 97 % peak area
- Phentolamine Concentration [1, 19]: 91 µg/mL
- Phentolamine Purity [1, 19]: 95 % peak area
- Phentolamine Concentration [1, 20]: 84 µg/mL
- Phentolamine Purity [1, 20]: 91 % peak area
- Phentolamine Concentration [1, 21]: 96 µg/mL
- Phentolamine Purity [1, 21]: 99 % peak area
- Phentolamine Concentration [1, 22]: 88 µg/mL
- Phentolamine Purity [1, 22]: 92 % peak area
- Phentolamine Concentration [1, 23]: 74 µg/mL
- Phentolamine Purity [1, 23]: 78 % peak area
- Phentolamine Concentration [1, 24]: 64 µg/mL
- Phentolamine Purity [1, 24]: 74 % peak area
- rank of buffer preference based on the amount of phentolamine recovered at the end of the study ([1]; pH 3, 60° C., 14 days): sodium acetate>no buffer (water with pH adjusted to pH 3)>sodium phosphate>sodium lactate>sodium succinate>sodium citrate
- Phentolamine Concentration [2, 25]: 90 µg/mL
- Phentolamine Purity [2, 25]: 99 % peak area
- Phentolamine Concentration [2, 26]: 92 µg/mL
- Phentolamine Purity [2, 26]: 99 % peak area
- Phentolamine Concentration [2, 27]: 82 µg/mL
- Phentolamine Purity [2, 27]: 98 % peak area
- Phentolamine Concentration [2, 28]: 77 µg/mL
- Phentolamine Purity [2, 28]: 97 % peak area
- pH ([2]; 0 mM sodium acetate (un-buffered), Day 0): 3.6
- pH ([2]; 0 mM sodium acetate (un-buffered), Day 2): 4.4
- pH ([2]; 0 mM sodium acetate (un-buffered), Day 7): 5.1
- pH ([2]; 0 mM sodium acetate (un-buffered), Day 14): 5.3
- Phentolamine Concentration [2, 29]: 99 µg/mL
- Phentolamine Purity [2, 29]: 99 % peak area
- Phentolamine Concentration [2, 30]: 97 µg/mL
- Phentolamine Purity [2, 30]: 99 % peak area
- Phentolamine Concentration [2, 31]: 94 µg/mL
- Phentolamine Purity [2, 31]: 98 % peak area
- Phentolamine Concentration [2, 32]: 92 µg/mL
- Phentolamine Purity [2, 32]: 98 % peak area
- pH ([2]; 5 mM sodium acetate, Day 0): 3.5
- pH ([2]; 5 mM sodium acetate, Day 2): 3.8
- pH ([2]; 5 mM sodium acetate, Day 7): 3.8
- pH ([2]; 5 mM sodium acetate, Day 14): 3.8
- Phentolamine Concentration [2, 33]: 100 µg/mL
- Phentolamine Purity [2, 33]: 99 % peak area
- Phentolamine Concentration [2, 34]: 97 µg/mL
- Phentolamine Purity [2, 34]: 99 % peak area
- Phentolamine Concentration [2, 35]: 96 µg/mL
- Phentolamine Purity [2, 35]: 98 % peak area
- Phentolamine Concentration [2, 36]: 92 µg/mL
- Phentolamine Purity [2, 36]: 98 % peak area
- pH ([2]; 10 mM sodium acetate, Day 0): 3.5
- pH ([2]; 10 mM sodium acetate, Day 2): 3.7
- pH ([2]; 10 mM sodium acetate, Day 7): 3.8
- pH ([2]; 10 mM sodium acetate, Day 14): 3.7
- Phentolamine Purity ([2]; 50 mM sodium acetate pH 3.5, 60° C., Day 0): 98 % peak area
- Phentolamine Purity ([2]; 50 mM sodium acetate pH 3.5, 60° C., Day 2): 98 % peak area
- Phentolamine Concentration [2, 37]: 99 µg/mL
- Phentolamine Purity [2, 37]: 98 % peak area
- Phentolamine Concentration [2, 38]: 96 µg/mL
- Phentolamine Purity [2, 38]: 96 % peak area
- pH ([2]; 50 mM sodium acetate, Day 0): 3.5
- pH ([2]; 50 mM sodium acetate, Day 2): 3.6
- pH ([2]; 50 mM sodium acetate, Day 7): 3.6
- pH ([2]; 50 mM sodium acetate, Day 14): 3.6
- rate of degradation vs un-buffered control (0 mM) ([2]; 5, 10 and 50 mM sodium acetate, pH 3.5, 60° C.): comparable and was an improvement over the un-buffered control
- electrocardiogram (healthy adult volunteers): no abnormalities
- duration of anesthesia (healthy adult volunteers; 60 minutes after 2% lidocaine with 1:100,000 epinephrine, vs saline, each tissue): significantly (p<0.01) reduced
- Adverse effects (healthy adult volunteers; vs placebo): few and no differences were noted between the active and placebo groups
- electrocardiogram ([3]; 0.02 mg, 0.06 mg, 0.4 mg in 1.8 ml): no abnormalities
- Adverse events ([3]; 0.02 mg, 0.06 mg, 0.4 mg in 1.8 ml, vs placebo): few and no differences were noted between the active and placebo groups
- duration of anesthesia ([3]; all doses tested (0.02 mg, 0.06 mg, 0.4 mg in 1.8 ml), 60 minutes after lidocaine 2% with epinephrine 1:100,000, vs saline, each measured tissue): significantly (p<0.05) reduced
- electrocardiogram ([4]; 0.02 mg, 0.08 mg, 0.4 mg in 1.8 ml): no abnormalities
- Adverse events ([4]; 0.02 mg, 0.08 mg, 0.4 mg in 1.8 ml, vs placebo): few and no differences were noted between the active and placebo groups
- duration of anesthesia ([4]; all doses tested (0.02 mg, 0.08 mg, 0.4 mg in 1.8 ml), 40 minutes after lidocaine 2% with epinephrine 1:100,000, vs saline, each measured tissue): significantly (p<0.01) reduced
